Common to all, as to format: in vivo, dog
One series concerns Beagle dogs. The experiment in a line: Multiple-dose tolerance study, oral capsule 3 times a day for 14 days. As to the method:
The following parameters and end points were evaluated in the multiple-dose phase of this study: clinical signs, body weights, body weight changes, food consumption, electrocardiography, clinical pathology parameters (hematology, clinical chemistry, and urinalysis), and gross necropsy findings.
3 male and 3 female Beagle dogs were received from Marshall BioResources, North Rose, N.Y. The animals were examined and weighed on the day following receipt. The rising-dose phase animals were 6 months old and weighed 7.5 kg and 8.3 kg at initiation of dosing. The multiple-dose phase animals were 7 months old and weighed 7.4 kg and 7.6 kg at initiation of dosing.
For the multiple-dose phase, the test article was administered to the appropriate animals 3 times a day in an oral capsule from Days 1 to 14. The doses were administered 8 hours±30 minutes apart. The dose amount for each animal was based on the most recent body weight measurement. The first day of dosing was designated as Day 1.
Cage side observations were performed once daily, beginning during Week −1 and throughout the dosing period. During the dosing period, these observations were performed 1 to 3 hours post the first daily dose. The animals were removed from the cage and a detailed clinical observation was performed weekly, beginning during Week −1. Each animal was weighed on the day of randomization and Days 1, 4, 8, 11, and 15. A fasted weight was recorded on the day of necropsy. Food consumption was quantitatively measured for each animal daily, starting Week −1, throughout the dosing period, except for on the day of scheduled euthanasia.
Electrocardiogram (ECG) measurements were obtained from all animals using leads I, II, III, aVR, aVL, and aVF and a chart speed of 50 mm/second. The ECG measurements were obtained once on Day −1 (pretreatment) and Day 14 (approximately 3 hours post the first daily dose). Only lead II was evaluated by a board-certified veterinary cardiologist.
Blood was collected by venipuncture of the jugular vein. Urine was collected overnight by cage pan drainage. After collection, samples were transferred to the clinical pathology laboratory for processing. The animals were fasted overnight prior to scheduled clinical pathology sample collections, but had access to water ad libitum. Samples were collected according to Table 10.
Multiple-dose phase animals surviving until scheduled euthanasia were weighed, samples for evaluation of clinical pathology parameters were collected as specified above, and the animals were euthanized by sodium pentobarbital injection, followed by exsanguination. Animals were fasted (overnight) before their scheduled necropsy.
Multiple-dose phase animals were subjected to a complete necropsy examination, which included evaluation of the carcass and musculoskeletal system; all external surfaces and orifices; cranial cavity and external surfaces of the brain; and thoracic, abdominal, and pelvic cavities with their associated organs and tissues. Necropsy examinations were conducted under the supervision of a board-certified veterinary pathologist.

Series [1] deals with dogs with suspected chronic pancreatitis. Put plainly: Quality of life reported by owners and referring vets, clinical trial. As to the method:
(§1) Treatment effects on overall health status, quality of life, and clinical signs were also evaluated with serum biochemistry profiles, complete blood counts, and owner questionnaires.
Patients were treated at home and their overall health was monitored by their owners and the referring physician.
Owners of enrolled dogs received instructions to refrain from changing the dog's diet during the trial period and to report on the overall health status and quality of life of their pet.

The test system is the same in series [2]. The experiment in a line: Serum S100A12 before and after treatment, clinical trial. Conditions: for Change in serum S100A12, pre- vs post-treatment: methanesulfonate. As for the experimental part: as §1
Dogs were identified by screening current submissions to the Gastrointestinal Laboratory at Texas A&M indicative of pancreatitis (canine pancreas-specific lipase≧400 μg/L) using an immunoassay for measurement of canine pancreas-specific lipase in canine serum known as the spec CPL® Test (IDEXX, Laboratories). A number of potential study participants were directly referred to the investigator by veterinarians, based on positive pet-side SNAP cPL® Test (IDEXX Laboratories, Westbrook, Me., USA) results and concomitant clinical signs. After ascertaining individual suitability of a patient with the referring veterinarian, serum canine pancreas-specific lipase concentration, serum biochemistry profile, and complete blood count were evaluated or re-evaluated 12±4 days after collection of the initial sample submission to the Gastrointestinal Laboratory. Based on the assumption that consecutive canine pancreas-specific lipase elevations indicate chronic pancreatitis, enrollment was offered for patients with canine pancreas-specific lipase concentrations≧400 μg/L, serum triglyceride concentrations below 500 mg/dL, and no indication of hepatic, renal, or other organ disease. […] Owner consent was required prior to phlebotomy and for enrollment into the trial.
Twelve enrolled dogs received camostat capsules at a dosage of 4 mg/kg q 8 hrs, for a total dose of 12 mg/kg q 24 hrs. […] Individual patients were medicated for between 21 to 31 days.
Blood samples were collected before beginning the treatment and after completion of the treatment period. Complete blood count (red blood cell count, hematocrit, mean corpuscular volume, mean corpuscular hemoglobin, mean corpuscular hemoglobin concentration, differential and absolute white blood cell count, red blood cell count, hemoglobin, platelet estimate, red blood cell morphology, white blood cell morphology, and hemoparasites) was evaluated at the Texas Veterinary Medical Diagnostic Laboratory (TVMDL). A serum chemistry profile with electrolytes (glucose, blood urea nitrogen, creatinine, calcium, phosphorus, albumin, total protein, total bilirubin, alkaline phosphatase, alanine amino transferase, aspartate amino transferase, γ-glutamyl transferase, cholesterol, triglycerides, globuline, sodium, potassium, and chloride) was performed on a SIRRUS analyzer (Stanbio, Boerne, Tex., USA). […]
Pre-treatment and post-treatment results for all diagnostic tests were statistically analyzed using Prism 6 (GraphPad Software, La Jolla, Calif., USA). […]

[3] abbreviates: Day 15 vs pretest, 200 mg/kg/day, methanesulfonate, 200 mg/kg/day.

“Also recorded” adds a separate entry of the source.

Regarding `CN(C)C(=O)COC(=O)Cc1ccc(OC(=O)c2ccc(NC(=N)N)cc2)cc1` [Camostat Mesilate, N,N-dimethylcarbamoylmethyl-4-(4-guanidinobenzoyloxy)phenylacetate methanesulfonate], the Survival entry with Beagle dogs (200 mg/kg/day (66.7 mg/kg/dose 3 times a day), 14 days, 1 male and 1 female, methanesulfonate) is reported as “No animals died; also recorded: All animals survived to scheduled euthanasia”. Besides, in the series with Beagle dogs (200 mg/kg/day, 14 days), the “Body weight, overall conclusion” value is recorded as “body weight loss” and the Food consumption entry is recorded as “no notable changes”. Also, in the series on Beagle dogs (Day 15, 200 mg/kg/day), the Gross necropsy findings result is given as “no gross necropsy findings”. Besides, in the series on Beagle dogs (setting [3]), the Hematology parameters result is on record as “no toxicologically meaningful changes; also recorded: no notable changes” and the Urinalysis parameters result is listed as “no toxicologically meaningful changes; also recorded: no notable changes”. Further, in the series with Beagle dogs (dogs, oral, 3 times per day), the “High-dose level chosen from the tolerance study” value came to 200 mg/kg/day. In the series with Beagle dogs (female, 200 mg/kg/day, 14 days), the “Body weight change Days 1 to 15” value is −2.7%; the Clinical observations entry was “clear ocular discharge and single occurrences of vomitus and mucoid feces”. Moreover, the “Clinical chemistry, potential test article-related changes” value with Beagle dogs (male and female, Day 15, 200 mg/kg/day, methanesulfonate, 200 mg/kg/day) was “increased creatinine and γ-glutamyl transferase; also recorded: increases in creatinine and γ-glutamyl transferase”. Further, in the series with Beagle dogs (male, 200 mg/kg/day, 14 days), the “Body weight change Days 1 to 15” value is −9.2%; the Clinical observations entry is “thin appearance and a single occurrence of vomitus”. The “Quality of life, reports from referring vets and pet owners” value in series [1] (24 mg/kg q d orally) is “subjective improvement of quality of life in some patients”. In addition, the “Quality of life, overall consensus from pet owners” value in series [1] (all treated dogs) is recorded as “had improved”. Besides, in series [2] (4 mg/kg q 8 hrs, n=11), the “Change in serum S100A12, pre- vs post-treatment” value is reported as “decreased significantly”. Further, in series [2] (4 mg/kg q 8 hrs, n=11, pre-treatment median 160, post range 43-449, p=0.0010), the “Serum S100A12 concentration post-treatment (median)” value worked out at 88 µg/L. The “Change in serum S100A12, pre- vs post-treatment” value in series [2] (all treated dogs combined, n=28) was “no significant difference; also recorded: did not change significantly; also recorded: did not lead to any significant changes”. Also, the “Serum S100A12 concentration post-treatment (median)” value in series [2] (all treated dogs combined, n=28, pre-treatment median 154, post range 43-746, p=0.1438) stood at 133 µg/L.

Values taken from patent publication US20170095440A1, “METHOD OF TREATING CANINE PANCREATITIS” (CK9, LLC, priority 2014, published 2017).
